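Dose response: 5 concentrations. Exposure: 48 h. Format: 96-well plates. Endpoint: linear interpolation; highest concentration if not reached. At the GI50, growth is halved.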 Calls of active or inactive are those of the source. Cut-off read from the data, not from the text of the source: active = GI50 up to about 1.1 µM and inactive = higher.
Tests used:
Test in all cases: NCI anticancer screen, dose series, 48 h
T47D = tested on: T47D
COLO 205 = tested on: COLO 205
Malme-3M = tested on: Malme-3M
EKVX = tested on: EKVX
NCI/ADR-RES = tested on: NCI/ADR-RES
LOX IMVI = tested on: LOX IMVI
SF-539 = tested on: SF-539
OVCAR-8 = tested on: OVCAR-8
SF-268 = tested on: SF-268
SK-MEL-2 = tested on: SK-MEL-2
U-251 = tested on: U-251
OVCAR-5 = tested on: OVCAR-5
M14 = tested on: M14
NCI-H522 = tested on: NCI-H522
HL-60 = tested on: HL-60
Hs-578T = tested on: Hs-578T
MDA-MB-231 = tested on: MDA-MB-231
SK-MEL-5 = tested on: SK-MEL-5
DU-145 = tested on: DU-145
HCC 2998 = tested on: HCC 2998

| Structure (SMILES) | GI50 (T47D) | GI50 (COLO 205) | GI50 (Malme-3M) | GI50 (EKVX) | GI50 (NCI/ADR-RES) | GI50 (LOX IMVI) | GI50 (SF-539) | GI50 (OVCAR-8) | GI50 (SF-268) | GI50 (SK-MEL-2) | GI50 (U-251) | GI50 (OVCAR-5) | GI50 (M14) | GI50 (NCI-H522) | GI50 (HL-60) | GI50 (Hs-578T) | GI50 (MDA-MB-231) | GI50 (SK-MEL-5) | GI50 (DU-145) | GI50 (HCC 2998) |
| --- | --- | --- | --- | --- | --- | --- | --- | --- | --- | --- | --- | --- | --- | --- | --- | --- | --- | --- | --- | --- |
| COC(=O)Cc1c([C@H]2[C@H](CC(=O)OC)c3ccccc3N2C(C)=O)[nH]c2ccccc12 | > 100 µM (inactive) | 67.1 µM (inactive) | > 100 µM (inactive) | > 100 µM (inactive) | > 100 µM (inactive) | > 100 µM (inactive) | > 100 µM (inactive) | > 100 µM (inactive) | > 100 µM (inactive) | > 100 µM (inactive) | 91.2 µM (inactive) | > 100 µM (inactive) | > 100 µM (inactive) | 71 µM (inactive) | 85.3 µM (inactive) | > 100 µM (inactive) | > 100 µM (inactive) | > 100 µM (inactive) | > 100 µM (inactive) | – |
| COC(NC(=O)Nc1ccc(C)cc1)(C(F)(F)F)C(F)(F)F | 18.7 µM (inactive) | 18.7 µM (inactive) | 36.3 µM (inactive) | – | 25.9 µM (inactive) | 3.08 µM (inactive) | 41.4 µM (inactive) | 25.2 µM (inactive) | 40.4 µM (inactive) | – | 18.1 µM (inactive) | 34.9 µM (inactive) | 29.5 µM (inactive) | 22 µM (inactive) | > 100 µM (inactive) | 25 µM (inactive) | 32.2 µM (inactive) | 15.6 µM (inactive) | 35.6 µM (inactive) | – |
| CC1(C)OCC(C2OC(On3nnc4ccc(Cl)cc43)C3OC(C)(C)OC23)O1 (stereo not given) | > 100 µM (inactive) | > 100 µM (inactive) | > 100 µM (inactive) | > 100 µM (inactive) | > 100 µM (inactive) | > 100 µM (inactive) | > 100 µM (inactive) | > 100 µM (inactive) | > 100 µM (inactive) | > 100 µM (inactive) | > 100 µM (inactive) | > 100 µM (inactive) | > 100 µM (inactive) | > 100 µM (inactive) | > 100 µM (inactive) | > 100 µM (inactive) | > 100 µM (inactive) | > 100 µM (inactive) | > 100 µM (inactive) | – |
| NC1=CN2c3ccccc3N(CC(=O)N3CCOCC3)C2C=C1 (stereo not given) | > 100 µM (inactive) | > 100 µM (inactive) | > 100 µM (inactive) | > 100 µM (inactive) | > 100 µM (inactive) | > 100 µM (inactive) | > 100 µM (inactive) | > 100 µM (inactive) | > 100 µM (inactive) | > 100 µM (inactive) | > 100 µM (inactive) | > 100 µM (inactive) | > 100 µM (inactive) | > 100 µM (inactive) | > 100 µM (inactive) | > 100 µM (inactive) | > 100 µM (inactive) | > 100 µM (inactive) | > 100 µM (inactive) | – |
| O=C(Cc1ccccc1)NN1C(=O)/C(=C\c2ccccc2)S/C1=N\c1ccccc1 | > 100 µM (inactive) | > 100 µM (inactive) | – | > 100 µM (inactive) | > 100 µM (inactive) | – | > 100 µM (inactive) | > 100 µM (inactive) | > 100 µM (inactive) | > 100 µM (inactive) | > 100 µM (inactive) | > 100 µM (inactive) | > 100 µM (inactive) | – | – | > 100 µM (inactive) | > 100 µM (inactive) | > 100 µM (inactive) | > 100 µM (inactive) | > 100 µM (inactive) |
| O=C(Nc1cccc2nsnc12)c1cc2c(cc1Cl)Sc1nccn1S2(=O)=O | 2.24 µM (inactive) | 18 µM (inactive) | 74.5 µM (inactive) | 5.22 µM (inactive) | 17.7 µM (inactive) | 8.43 µM (inactive) | 3.52 µM (inactive) | 2.73 µM (inactive) | 3.62 µM (inactive) | 11.2 µM (inactive) | 5.66 µM (inactive) | 32.4 µM (inactive) | 18.9 µM (inactive) | 8.2 µM (inactive) | 1.85 µM (inactive) | 4.25 µM (inactive) | 8.26 µM (inactive) | 17.9 µM (inactive) | – | 3.38 µM (inactive) |
| CC(=O)NC1(C)C(C)C2CC1C(C)C2(C)C (stereo not given) | > 100 µM (inactive) | > 100 µM (inactive) | > 100 µM (inactive) | > 100 µM (inactive) | – | – | > 100 µM (inactive) | > 100 µM (inactive) | > 100 µM (inactive) | – | > 100 µM (inactive) | > 100 µM (inactive) | > 100 µM (inactive) | > 100 µM (inactive) | > 100 µM (inactive) | > 100 µM (inactive) | > 100 µM (inactive) | > 100 µM (inactive) | > 100 µM (inactive) | > 100 µM (inactive) |
| Cc1cc(C)c(/N=N/c2c(O)c(S(=O)(=O)O)cc3cc(S(=O)(=O)O)ccc23)cc1C | > 100 µM (inactive) | > 100 µM (inactive) | > 100 µM (inactive) | > 100 µM (inactive) | > 100 µM (inactive) | > 100 µM (inactive) | – | > 100 µM (inactive) | > 100 µM (inactive) | > 100 µM (inactive) | > 100 µM (inactive) | > 100 µM (inactive) | > 100 µM (inactive) | > 100 µM (inactive) | – | > 100 µM (inactive) | > 100 µM (inactive) | > 100 µM (inactive) | > 100 µM (inactive) | – |
| CCOc1cn(C2CC(O)C(CO)O2)c(=O)[nH]c1=O (stereo not given) | > 100 µM (inactive) | > 100 µM (inactive) | > 100 µM (inactive) | > 100 µM (inactive) | > 100 µM (inactive) | > 100 µM (inactive) | – | – | > 100 µM (inactive) | > 100 µM (inactive) | > 100 µM (inactive) | > 100 µM (inactive) | > 100 µM (inactive) | – | > 100 µM (inactive) | > 100 µM (inactive) | > 100 µM (inactive) | > 100 µM (inactive) | > 100 µM (inactive) | > 100 µM (inactive) |
| N=C1C(O)C2(I)c3ccccc3N3C(=N)C(O)C4c5ccccc5N1C4C32 (stereo not given) | > 100 µM (inactive) | 26.2 µM (inactive) | 21.1 µM (inactive) | > 100 µM (inactive) | 61.2 µM (inactive) | 39 µM (inactive) | – | 33.5 µM (inactive) | > 100 µM (inactive) | > 100 µM (inactive) | 22.1 µM (inactive) | > 100 µM (inactive) | 59 µM (inactive) | 25.9 µM (inactive) | 20.2 µM (inactive) | 61.8 µM (inactive) | 26.4 µM (inactive) | 30.8 µM (inactive) | > 100 µM (inactive) | – |
| CC(C)(C)C(=O)CC(=O)C(F)(F)C(F)(F)C(F)(F)F | 16 µM (inactive) | 19 µM (inactive) | 22.1 µM (inactive) | 15.2 µM (inactive) | 18.6 µM (inactive) | 0.362 µM (active) | 24.8 µM (inactive) | 20.7 µM (inactive) | 17 µM (inactive) | 16.4 µM (inactive) | 18.4 µM (inactive) | 35.4 µM (inactive) | 16 µM (inactive) | – | 19.2 µM (inactive) | 14.6 µM (inactive) | 15.5 µM (inactive) | 7.19 µM (inactive) | 36.1 µM (inactive) | – |
| Cc1ccc(S(=O)(=O)N2CCC(C(=O)O)(c3ccccc3)CC2)cc1 | > 100 µM (inactive) | > 100 µM (inactive) | > 100 µM (inactive) | > 100 µM (inactive) | > 100 µM (inactive) | > 100 µM (inactive) | > 100 µM (inactive) | > 100 µM (inactive) | > 100 µM (inactive) | > 100 µM (inactive) | > 100 µM (inactive) | > 100 µM (inactive) | > 100 µM (inactive) | > 100 µM (inactive) | > 100 µM (inactive) | > 100 µM (inactive) | > 100 µM (inactive) | > 100 µM (inactive) | > 100 µM (inactive) | – |
| O=C([O-])C(O)C(O)C(=O)O.[K+] (stereo not given) [POTASSIUM HYDROGENTARTRATE] | > 100 µM (inactive) | > 100 µM (inactive) | > 100 µM (inactive) | > 100 µM (inactive) | > 100 µM (inactive) | > 100 µM (inactive) | > 100 µM (inactive) | > 100 µM (inactive) | > 100 µM (inactive) | > 100 µM (inactive) | > 100 µM (inactive) | > 100 µM (inactive) | > 100 µM (inactive) | > 100 µM (inactive) | > 100 µM (inactive) | > 100 µM (inactive) | > 100 µM (inactive) | > 100 µM (inactive) | > 100 µM (inactive) | – |
| C[S+](C)C1(c2ccccc2)C(=O)c2ccccc2C1=O | 29.4 µM (inactive) | > 100 µM (inactive) | > 100 µM (inactive) | 34 µM (inactive) | 24.8 µM (inactive) | 38.9 µM (inactive) | 28.7 µM (inactive) | > 54.7 µM (inactive) | 60.3 µM (inactive) | > 43 µM (inactive) | 22.5 µM (inactive) | > 49.3 µM (inactive) | > 59.6 µM (inactive) | > 48.8 µM (inactive) | > 31.6 µM (inactive) | 24.4 µM (inactive) | – | > 38.5 µM (inactive) | > 100 µM (inactive) | 17.7 µM (inactive) |
| Cc1cc2c(c(=O)o1)C1=S(SC(c3ccccc3)=C1)S2 (stereo not given) | 36.9 µM (inactive) | > 100 µM (inactive) | 30.1 µM (inactive) | – | 83.4 µM (inactive) | 87.1 µM (inactive) | 24.3 µM (inactive) | 54.7 µM (inactive) | 45.7 µM (inactive) | 66.4 µM (inactive) | 22.5 µM (inactive) | 78.9 µM (inactive) | 45.5 µM (inactive) | 37.6 µM (inactive) | – | 41.2 µM (inactive) | 57.4 µM (inactive) | 47.4 µM (inactive) | 36.3 µM (inactive) | – |
